The text below walks through data of PubChem BioAssay (NCI).

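96-well plates; 48 h exposure; 5 concentrations. Endpoints by linear interpolation between flanking doses. Not reached: highest tested concentration assigned. GI50: concentration for 50% inhibition of growth. At the TGI there is no net growth.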

Test systems include ACHN renal; 786-0 renal; A549 NSCLC; SN12C renal; SK-OV-3 ovarian; PC-3 prostate; CCRF-CEM leukemia; SW-620 colon; TK-10 renal; HCT-116 colon.
What all share (test): inhibition of tumour cell growth, NCI panel, 48 h

As to `CC(C)C[C@H](NC(=O)[C@@H](O)[C@H](N)Cc1ccccc1)C(=O)O`, the TGI with ACHN renal, with 786-0 renal, in the assay with A549 NSCLC, in the assay with SN12C renal, with SK-OV-3 ovarian and in the assay on PC-3 prostate was over 100 µM throughout. Further, the TGI in the assay on CCRF-CEM leukemia, in the assay on SW-620 colon, with TK-10 renal and with HCT-116 colon was over 100 µM throughout.

As for `CC1(C)CC2(C)OC2C2(C1)N=NC(=Nc1ccccc1)O2` (stereo unspecified), the GI50 with ACHN renal is 2 µM; in the assay with 786-0 renal, 2.33 µM; in the assay on A549 NSCLC, 11 µM; in the assay with SN12C renal, 2.48 µM; in the assay on SK-OV-3 ovarian, 28.5 µM; in the assay with PC-3 prostate it was 11.5 µM. Also, the GI50 with CCRF-CEM leukemia is 2.46 µM; in the assay on SW-620 colon, 2.35 µM; with TK-10 renal, 3.44 µM; with HCT-116 colon it was 1.29 µM. Further, the TGI with ACHN renal is 6.12 µM; in the assay on 786-0 renal it was 5.63 µM; in the assay on A549 NSCLC, 39.5 µM; in the assay on SN12C renal it was 8.33 µM; with SK-OV-3 ovarian, over 100 µM; with PC-3 prostate, 28.9 µM. Besides, the TGI came out at 8.07 µM in the assay with CCRF-CEM leukemia, 9.28 µM in the assay on SW-620 colon, 8.31 µM with TK-10 renal and 6.45 µM in the assay with HCT-116 colon.

With `CN1CC(C(=O)NC2(C)OC3(O)C4CCCN4C(=O)C(Cc4ccccc4)N3C2=O)C=C2c3cccc4[nH]cc(c34)CC21` (stereo unspecified), the TGI with ACHN renal is 55.1 µM; in the assay on 786-0 renal it was 45 µM; with A549 NSCLC it was over 100 µM; with SN12C renal, 43.5 µM; in the assay with SK-OV-3 ovarian, over 100 µM; in the assay with PC-3 prostate, 59.6 µM. Moreover, the TGI in the assay on CCRF-CEM leukemia is over 100 µM; in the assay on SW-620 colon it was over 100 µM; in the assay with TK-10 renal, 41.4 µM; in the assay on HCT-116 colon it was 48.7 µM.

Take `COc1cc(/C=C\c2cccnc2Nc2ccccc2)cc(OC)c1OC`: the GI50 was 5.33 µM with ACHN renal; 5.98 µM with 786-0 renal; 4.21 µM with A549 NSCLC; 5.1 µM in the assay with SN12C renal; 11.1 µM in the assay with SK-OV-3 ovarian; 7.81 µM in the assay on PC-3 prostate. In addition, the GI50 with CCRF-CEM leukemia is 7.08 µM; with SW-620 colon, 4.81 µM; in the assay on TK-10 renal, 15.5 µM; with HCT-116 colon, 3.77 µM. Also, the TGI in the assay on ACHN renal was 78.1 µM; with 786-0 renal, 44.1 µM; in the assay on A549 NSCLC, over 100 µM; with SN12C renal, over 100 µM; in the assay with SK-OV-3 ovarian, over 100 µM; in the assay with PC-3 prostate, 75.1 µM. Besides, the TGI with CCRF-CEM leukemia is over 100 µM; in the assay on SW-620 colon, over 100 µM; in the assay with TK-10 renal, 80.7 µM; in the assay on HCT-116 colon it was 15.6 µM.

For the molecule `CN1C(=O)C23CC4=CC=CC(O)C4N2C(=O)C1(CO)SS3` (stereo unspecified), the TGI in the assay on ACHN renal worked out at 0.334 µM; in the assay with 786-0 renal it was 0.222 µM; in the assay with A549 NSCLC it was 0.318 µM; in the assay on SN12C renal, 0.139 µM; with SK-OV-3 ovarian, 2.75 µM; in the assay on PC-3 prostate, 0.387 µM. For the same molecule, the TGI with SW-620 colon stood at 0.634 µM; in the assay on TK-10 renal, 0.34 µM; in the assay with HCT-116 colon it was 0.279 µM.

Turning to `OCCCCC#Cc1ccccc1C#Cc1cnccn1`, the GI50 is 38.8 µM in the assay with ACHN renal; 34.7 µM in the assay on 786-0 renal; 38.3 µM in the assay with A549 NSCLC; 47.3 µM in the assay with SN12C renal; 46.3 µM in the assay with SK-OV-3 ovarian; 34.6 µM in the assay on PC-3 prostate. Also, the GI50 is 26.9 µM in the assay with CCRF-CEM leukemia, 62.6 µM with SW-620 colon, 47.7 µM with TK-10 renal and 42.6 µM with HCT-116 colon. Besides, the TGI in the assay with ACHN renal, in the assay on 786-0 renal, in the assay with A549 NSCLC, in the assay with SN12C renal, in the assay on SK-OV-3 ovarian and with PC-3 prostate was over 100 µM each time. In addition, the TGI in the assay on CCRF-CEM leukemia, in the assay with SW-620 colon, in the assay on TK-10 renal and in the assay with HCT-116 colon was over 100 µM throughout.

Turning to `C=C(C)[C@]12CC(C)C34OC(/C=C\C=C\CCCCCCCCC)(O[C@@H]1[C@@H]3[C@@H]1O[C@]1(CO)[C@@H](O)[C@]1(O)C(=O)C(C)=C[C@@H]41)O2` (stereo partly specified), the TGI in the assay on ACHN renal worked out at 22.8 µM; with 786-0 renal it was 21.5 µM; in the assay on A549 NSCLC, 20.9 µM; in the assay with SN12C renal it was 7.86 µM; in the assay on SK-OV-3 ovarian, 35.1 µM; in the assay on PC-3 prostate, 12.9 µM. The TGI with CCRF-CEM leukemia was over 26.1 µM; with TK-10 renal, 19.1 µM; in the assay with HCT-116 colon it was 21 µM. For the same molecule, the GI50 in the assay on A549 NSCLC and in the assay on PC-3 prostate was under 0.0001 µM in each case.

Take `O=c1c2cc(F)ccc2sc2c(NCCCN3CCCC3)nc3ccccc3c12`: the GI50 is 1.69 µM in the assay on ACHN renal; 1.61 µM in the assay with 786-0 renal; 1.87 µM in the assay with A549 NSCLC; 1.97 µM in the assay with SN12C renal; 2.35 µM with SK-OV-3 ovarian; 1.6 µM in the assay on PC-3 prostate. Further, the GI50 in the assay with CCRF-CEM leukemia is 2.02 µM; in the assay with TK-10 renal, 1.99 µM; with HCT-116 colon, 1.63 µM. In addition, the TGI in the assay with ACHN renal was 3.18 µM; in the assay with 786-0 renal, 3.08 µM; in the assay with A549 NSCLC, 3.83 µM; in the assay on SN12C renal, 4.6 µM; in the assay on SK-OV-3 ovarian, 7.79 µM; in the assay on PC-3 prostate, 3.15 µM. For the same molecule, the TGI is 4.51 µM with CCRF-CEM leukemia, 3.65 µM in the assay with TK-10 renal and 3.19 µM in the assay on HCT-116 colon.

As to `C#Cc1cccc(Nc2ncnc3ccc(-c4cncc(NS(C)(=O)=O)c4)cc23)c1`, the GI50 was 0.979 µM in the assay on ACHN renal; 1.77 µM with 786-0 renal; 3.63 µM in the assay with A549 NSCLC; 2.51 µM in the assay on SN12C renal; 1.89 µM in the assay with SK-OV-3 ovarian; 2.21 µM with PC-3 prostate. For the same molecule, the GI50 in the assay with CCRF-CEM leukemia is 0.82 µM; with SW-620 colon, 2.36 µM; in the assay on HCT-116 colon, 1.45 µM. The TGI with ACHN renal is 49.6 µM; in the assay on 786-0 renal, 6.74 µM; in the assay with A549 NSCLC it was 14.9 µM; in the assay on SN12C renal, 19.7 µM; with SK-OV-3 ovarian, 5.71 µM; with PC-3 prostate, 9.95 µM. For the same molecule, the TGI came to 7.31 µM in the assay on CCRF-CEM leukemia, 6.31 µM in the assay on SW-620 colon and 3.29 µM in the assay on HCT-116 colon.
